Target: Serine/threonine-protein kinase pim-1 (Homo sapiens, UniProt P11309)
Experiment: Biological Assay: Determination of the Pim kinase activity of a Formula I compound is possible by a number of direct and indirect detection methods. Certain exemplary compounds described herein were assayed for their Pim kinase binding activity, including isoforms Pim-1, Pim-2, andPim-3, (Example 901) and in vitro activity against tumor cells (Example 902).
Assay type: cell-based

Chain of Serine/threonine-protein kinase pim-1 (P11309 whole entry, canonical isoform): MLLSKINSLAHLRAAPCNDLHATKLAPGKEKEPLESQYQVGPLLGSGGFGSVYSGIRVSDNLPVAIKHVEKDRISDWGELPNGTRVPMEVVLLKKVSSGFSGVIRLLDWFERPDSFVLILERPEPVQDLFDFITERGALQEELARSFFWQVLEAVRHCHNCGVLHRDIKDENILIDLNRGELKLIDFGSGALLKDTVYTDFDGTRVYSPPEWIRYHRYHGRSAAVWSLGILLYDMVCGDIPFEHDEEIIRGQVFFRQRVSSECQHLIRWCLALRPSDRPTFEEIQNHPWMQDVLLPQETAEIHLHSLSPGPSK

Ki: 0.047 nM
Structure (SMILES): N[C@@H]1CC[C@@H](c2c(NC(=O)c3csc(-c4c(F)cccc4F)n3)cnn2CC(F)F)OC[C@H]1F
